Data from US6603023B2 (priority 1996, dated 2003).
pIC50: −log10 of the molar value. Structures can show the parent of a compound that is named as a salt. Where two headings read alike, the source gives them in different places.

How the values were obtained:
[1] = tested on: PC-3 Human Prostate Carcinoma; experiment: PC-3 xenograft; type: in vivo, nude mice; conditions: dEpoB 30 mg/kg 18 hr i.v. infusion, Taxol 16 mg/kg 6 hr infusion, VBL 2 and VP-16 25 mg/kg i.v. inj
[2] = tested on: A549 Human Lung Carcinoma; experiment: A549 xenograft; type: in vivo, nude mice; conditions: Q2D x 3: dEpoB 30 mg/kg 18 hr i.v. infusion, Taxol 15 mg/kg 6 hr infusion, VBL 2 and VP-16 25 mg/kg i.v. inj
[3] = tested on: murine leukemic P388/0; experiment: XTT cytotoxicity, P388/0; type: cell-based; conditions: Table 1C; XTT, 72 h; read-out: IC50
Outline: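 Cells seeded at 5×10^4 cells/mL in RPMI-1640 + 10% heat-inactivated FBS, 37 °C/5% CO2; resistant lines cultured continuously with selecting agent. 72 h drug incubation. XTT (1 mg/mL) mixed with PMS to 0.025 mM PMS, 4 h, read 450 nm/630 nm.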

[4] = tested on: human neuroblastoma SK-N-As; experiment: SRB cytotoxicity, SK-N-As; type: cell-based; conditions: Table 1C; SRB, 72 h; read-out: IC50
Outline: (§1)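 Monolayer cultures grown in RPMI 1640-10% FBS at 37 °C, 5% CO2, with resistant sublines kept under their selecting agent. Cytotoxicity determined by SRB protein staining (TCA fixation, absorbance 570 nm) in duplicate at six to seven drug concentrations. ED50 obtained by median-effect plot analysis.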

[5] = tested on: SK-N-FI; experiment: cells; type: cell-based, human
Outline: as §1

[6] = tested on: MCF-7; experiment: SRB cytotoxicity, MCF-7; type: cell-based, human; conditions: Table 1C; SRB, 72 h; read-out: IC50
Outline: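 Monolayer MCF-7 cultures exposed to six to seven drug concentrations in duplicate, then fixed with trichloroacetic acid and stained 30 min with 0.4% sulforhodamine B. Bound dye extracted with unbuffered Tris base, absorbance read at 570 nm; values derived by median-effect plot analysis.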

[7] = tested on: B16 Melanoma; type: in vivo, B6D2F1 mice
Description: Body weight was determined at 0, 2, 4, 6, 8, 10 and 12 days. […] Injections were started on day 1. […] Body weight was determined at 0, 2, 4, 6, 8, 10 and 12 days. […] Injections were started on day 1.

[8] = tested on: human ovarian adenocarcinoma SK-OV-3; conditions: 0.6 mg/kg i.p. Q2Dx5 from day 9

## CC[C@]1(O)C[C@@H]2CN(CCc3c([nH]c4ccccc34)[C@@](C(=O)OC)(c3cc4c(cc3OC)N(C)[C@H]3[C@@](O)(C(=O)OC)[C@H](OC(C)=O)[C@]5(CC)C=CCN6CC[C@]43[C@@H]65)C2)C1 [Vinblastine, Vinblastine sulfate]
[1]
  Average Body Weight (change), Day 9: +1.4 g
  Average Body Weight (change), Day 11: +2.1 g
  Average Body Weight (change), Day 13: +3.0 g
  Average Tumor Size (TC), Day 9: 0.37 TC
  Average Tumor Size (TC), Day 11: 0.13 TC
  Average Tumor Size (TC), Day 13: 0.03 TC
  Tumor Disappearance: 1/3
[1]; initial weight
  Average Body Weight, Day 5: 23.5 g
[2]
  Average Body Weight (change), Day 13: +2.3 g
  Average Body Weight (change), Day 15: +3.2 g
  Tumor Disappearance: 2/3
[2]; control 96
  Average Tumor Size, Day 11: 11 mm^3
[2]; control 128
  Average Tumor Size, Day 13: 11 mm^3
[2]; control 306
  Average Tumor Size, Day 15: 11 mm^3
[2]; control 553
  Average Tumor Size, Day 17: 7 mm^3
[2]; initial weight
  Average Body Weight, Day 7: 25.5 g

## C/C(=C\c1csc(C)n1)[C@@H]1C[C@@H]2O[C@]2(C)CCC[C@H](C)[C@H](O)[C@@H](C)C(=O)C(C)(C)[C@@H](O)CC(=O)O1 [Epothilone B, epothilone B]
[3]
  pIC50: 9.54
[4]
  pIC50: 8.40
[5]; SK-N-F1 cells
  fold resistance vs parent SK-N-As: 25 fold
[5]; Table 1C, SK-N-FI vs SK-N-As
  folds of resistance (IC50 ratio vs parent cell line): (25x)
[5]; Table 1C, SRB, 72 h, read-out: IC50
  pIC50: 8.00
[6]
  pIC50: 9.30
[7]; 0.4 mg/kg QD × 6 from day 1, day 7
  Average Tumor Volume (T/C): 1.07
[7]; 0.8 mg/kg QD × 5 from day 1
  # Mice Died: 5/8
[7]; 0.8 mg/kg QD × 5 from day 1, day 9
  Average Tumor Volume (T/C): 0.46
[7]; B16 Melanoma, i.p.
  Therapeutic effect Rank Order: dEpoB > Taxol ® >> EpoB
[8]
  Toxicity Death: 0/6
  Tumor Disapp.: 0/6
[8]; day 13
  Average Body Weight Change: -0.9 g
[8]; day 15
  Average Body Weight Change: -0.5 g
  Average Tumor Size (T/C): 0.75
[8]; day 17
  Average Body Weight Change: -3.3 g
  Average Tumor Size (T/C): 0.69
[8]; day 19
  Average Body Weight Change: -3.4 g
  Average Tumor Size (T/C): 0.88
[8]; day 21
  Average Tumor Size (T/C): 0.77
